The values below are quoted from earlier work in US12605340B2, “Extended release composition of 2-(2-Aminothiazol-4-yl)-N-[4-(2{[(2R)-2-hydroxy-2-phenylethyl] amino} ethyl) phenyl] acetamide” (Zim Laboratories Limited, priority 2020, dated 2026).

The structures appear in SMILES notation. Read-outs that look alike come from different tables or passages of the source.

As for `Nc1nc(CC(=O)Nc2ccc(CCNC[C@H](O)c3ccccc3)cc2)cs1` [Mirabegron, 2(2-aminothiazol-4-yl)-N-[4-(2-{[(2R)-2-hydroxy2phenylethyl]amino}ethyl)phenyl] acetamide], the Solubility result runs as follows: (in dimethyl sulfoxide) “soluble”; (in methanol) “soluble”; (in water) “practically insoluble”.
